Reference: ChEMBL document CHEMBL2163210, “Aryl Piperazinyl Ureas as Inhibitors of Fatty Acid Amide Hydrolase (FAAH) in Rat, Dog, and Primate” (ACS Med Chem Lett, 2012)

Assays:
[1] = biological target: T1, Fatty-acid amide hydrolase 1 (Homo sapiens, UniProt O00519); test: Inhibition of human FAAH after 1 hr
T1 sequence (O00519 whole entry): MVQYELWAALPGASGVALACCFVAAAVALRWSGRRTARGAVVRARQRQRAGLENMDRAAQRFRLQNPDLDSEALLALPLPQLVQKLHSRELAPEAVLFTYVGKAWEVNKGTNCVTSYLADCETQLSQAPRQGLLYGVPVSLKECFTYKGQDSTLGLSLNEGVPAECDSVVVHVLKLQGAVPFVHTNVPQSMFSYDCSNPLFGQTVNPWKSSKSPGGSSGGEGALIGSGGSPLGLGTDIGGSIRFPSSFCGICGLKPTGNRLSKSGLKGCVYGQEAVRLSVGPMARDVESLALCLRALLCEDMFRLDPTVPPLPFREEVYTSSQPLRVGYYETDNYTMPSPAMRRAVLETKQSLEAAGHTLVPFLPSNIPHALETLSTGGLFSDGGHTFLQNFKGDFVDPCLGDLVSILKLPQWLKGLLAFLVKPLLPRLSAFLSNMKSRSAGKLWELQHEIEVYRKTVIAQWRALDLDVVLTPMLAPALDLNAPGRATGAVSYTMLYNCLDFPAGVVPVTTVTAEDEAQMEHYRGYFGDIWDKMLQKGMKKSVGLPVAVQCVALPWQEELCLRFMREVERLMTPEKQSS

[2] = biological target: T2, Fatty-acid amide hydrolase 1 (Rattus norvegicus, UniProt P97612)
T2 sequence (P97612 whole entry): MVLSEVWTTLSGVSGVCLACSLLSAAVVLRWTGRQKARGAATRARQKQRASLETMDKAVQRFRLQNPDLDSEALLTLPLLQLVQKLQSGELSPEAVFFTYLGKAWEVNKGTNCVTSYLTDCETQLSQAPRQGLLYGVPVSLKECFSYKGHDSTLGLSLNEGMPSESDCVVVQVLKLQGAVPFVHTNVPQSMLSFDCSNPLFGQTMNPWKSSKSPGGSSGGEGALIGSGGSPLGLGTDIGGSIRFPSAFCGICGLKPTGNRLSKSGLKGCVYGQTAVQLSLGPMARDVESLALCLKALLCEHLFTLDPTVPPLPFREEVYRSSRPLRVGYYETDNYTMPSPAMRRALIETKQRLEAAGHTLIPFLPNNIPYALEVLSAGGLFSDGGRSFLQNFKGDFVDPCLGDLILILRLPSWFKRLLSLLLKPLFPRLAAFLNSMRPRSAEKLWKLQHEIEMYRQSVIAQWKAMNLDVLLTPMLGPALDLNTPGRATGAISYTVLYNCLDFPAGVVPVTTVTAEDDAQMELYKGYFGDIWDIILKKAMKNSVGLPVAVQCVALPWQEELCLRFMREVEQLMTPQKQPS
Description: Inhibition of rat FAAH after 1 hr

[3] = biological target: T3, Fatty-acid amide hydrolase 2 (Homo sapiens, UniProt Q6GMR7); test: Inhibition of FAAH2
T3 sequence (Q6GMR7 whole entry): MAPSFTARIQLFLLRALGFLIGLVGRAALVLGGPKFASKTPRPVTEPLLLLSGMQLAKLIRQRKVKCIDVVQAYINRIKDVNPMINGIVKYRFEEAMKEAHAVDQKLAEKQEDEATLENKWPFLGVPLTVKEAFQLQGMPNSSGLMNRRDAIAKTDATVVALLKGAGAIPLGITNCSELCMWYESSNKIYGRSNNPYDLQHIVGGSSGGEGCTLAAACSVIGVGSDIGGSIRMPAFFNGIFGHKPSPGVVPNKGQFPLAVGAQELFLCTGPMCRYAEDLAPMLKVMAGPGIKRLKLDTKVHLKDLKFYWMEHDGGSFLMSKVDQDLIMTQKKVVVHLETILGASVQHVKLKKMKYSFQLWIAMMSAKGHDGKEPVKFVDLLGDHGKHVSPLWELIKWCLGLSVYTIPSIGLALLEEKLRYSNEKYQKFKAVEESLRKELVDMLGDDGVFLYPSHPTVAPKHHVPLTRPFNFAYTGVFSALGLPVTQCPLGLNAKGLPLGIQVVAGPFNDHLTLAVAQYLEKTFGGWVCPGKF

[4] = biological target: T1, Fatty-acid amide hydrolase 1; test: Inhibition of human FAAH
[5] = biological target: T2, Fatty-acid amide hydrolase 1; test: Inhibition of rat FAAH

IC50 [1] [µM] | IC50 [2] [µM] | IC50 [3] [µM] | IC50 [4] [µM] | IC50 [5] [µM] | SMILES
6.67 | – | – | – | – | N#Cc1cccc(CN2CCN(C(=O)Nc3ccccc3)CC2)c1
0.074 | 6.67 | – | – | – | O=C(Nc1ccccc1)N1CCN(Cc2cccc(Oc3ccccc3)c2)CC1
0.015 | 0.52 | – | – | – | O=C(Nc1ccncc1)N1CCN(Cc2cccc(Oc3ccc(Cl)cc3)c2)CC1
4.67 | > 10 | – | – | – | O=C(Nc1ccccc1)N1CCN(Cc2ccccc2Cl)CC1
2.83 | > 10 | – | – | – | O=C(Nc1ccccc1)N1CCN(Cc2ccc(Oc3ccccc3)cc2)CC1
0.012 | 0.133 | – | – | – | COc1ccc(Oc2cccc(CN3CCN(C(=O)Nc4ccccc4)CC3)c2)cc1
– | – | > 10 | – | – | O=C(Nc1cccnc1)N1CCC(Cc2cccc(Oc3ccc(C(F)(F)F)cn3)c2)CC1
0.128 | 2.67 | – | – | – | O=C(Nc1ccccc1)N1CCN(Cc2ccc(Cl)cc2)CC1
– | – | – | 0.12 | 0.243 | COc1cc(Br)cc(CN2CCN(C(=O)Nc3ccccc3)CC2)c1O
1.53 | – | – | – | – | COc1cccc(CN2CCN(C(=O)Nc3ccccc3)CC2)c1
0.046 | 0.075 | – | – | – | CC(C)(C)c1ccc(Oc2cccc(CN3CCN(C(=O)Nc4ccccc4)CC3)c2)cc1
0.35 | 0.83 | – | – | – | O=C(Nc1ccccc1)N1CCN(Cc2cccc(C(F)(F)F)c2)CC1
0.84 | 5.6 | – | – | – | O=C(Nc1ccccc1)N1CCN(Cc2cccc(Cl)c2)CC1
